Data taken from patent publication US6025376A, “Chiral methylphenyloxazolidinones” (Schering Aktiengesellschaft, priority 1995, dated 2000).

How the values were obtained:
[1] = target: 3H-Rolipram bond in brain homogenates; assay: Displacement of radiolabeled Rolipram in brain homogenates; assay type: binding; settings: calculated from IC50: Ki = IC50/[1+(L/KD)]
Method: The action of the enantiomers on the central nervous system was studied in vitro by examining their capacity to displace radiolabeled Rolipram in brain homogenates (Europ. Journ. of Pharmac. Vol. 127, 105-115 (1986)). The IC50 values (the concentration at which 50% inhibition action occurs) were converted to inhibition constant Ki, which is calculated according to the following formula: […]
in which L means the concentration of the radioactive tracer and KD means the dissociation constant of the ^3 H-Rolipram bond, which is determined separately.

[2] = system: phosphodiesterase type IV (PDE IV); assay: Grooming reaction in rats (characteristic of PDE IV inhibitors); assay type: in vivo, male Wistar rats; settings: observed 15-75 minutes after injection, MED = lowest dose with statistically significant effect
Method: (§1) The improved effectiveness of the new chiral methylphenyloxazolidinone derivatives in comparison with the racemate can be shown based on the head twitch and grooming reactions in rats that are characteristic of phosphodiesterase type IV (PDE IV) inhibitors. The racemate and the appropriate enantiomers were administered intraperitoneally (i.p.) to male Wistar rats and the occurrence of head twitches and grooming for 15-75 minutes after injection was detected by observation.
(§2) MED: Minimum effective dose, i.e., the lowest dose that ensures a statistically significant effect.

[3] = system: phosphodiesterase type IV (PDE IV); assay: Head-twitch test in rats (characteristic of PDE IV inhibitors); assay type: in vivo, male Wistar rats; settings: observed 15-75 minutes after injection, MED = lowest dose with statistically significant effect
Method: as §1, §2

TNF-α release = assay: Inhibition of LPS-stimulated TNF-α release from macrophage cell line RAW 264 (Elisa); assay type: cell-based, murine; settings: Mus musculus, RAW264.7, 30 min preincubation, LPS 10 ng/ml, 18 hours
Method: A murine macrophage cell line (RAW 264) was preincubated for 30 minutes in the presence and in the absence of various concentrations of PDE-IV inhibitors and then stimulated with LPS (10 ng/ml). 18 hours after stimulation, the culture medium was removed, and the TNF-α release was measured with a specific Elisa test. The test can be obtained from various companies, i.a., from the British biotechnology company Genzyme, and it is carried out as the manufacturer describes.

SMILES: COc1ccc(C2(C)CNC(=O)O2)cc1OC1CCCC1 (racemic) [(R,S) - 1, (R,S)-5-(3-Cyclopentyloxy-4-methoxyphenyl)-5-methyl-2-oxazolidinone]
- Ki [1]: 0.57 nM
- Grooming MED i.p. [2]: 0.1 mg/kg
- Head-Twitch Test MED i.p. [3]: 1.56 mg/kg

SMILES: CCCOc1cc(C2(C)CNC(=O)O2)ccc1OC (racemic) [(RS) - 2, (R,S)-5-(4-Methoxy-3-propoxyphenyl)-5-methyl-2-oxazolidinone]
- IC50 (TNF-α release): 500 nM
- Ki [1]: 0.61 nM

SMILES: CCOc1cc(C2(C)CNC(=O)O2)ccc1OC (racemic) [Ethyl- Racemate, (R,S)-5-(3-Ethoxy-4-methoxyphenyl)-5-methyl-2-oxazolidinone]
- Ki [1]: 0.68 nM

SMILES: COc1ccc([C@]2(C)CNC(=O)O2)cc1OC1CCCC1 [(R) - (-) - 1, (R)-(-)-5-(3-Cyclopentyloxy-4-methoxyphenyl)-5-methyl-2-oxazolidinone]
- Ki [1]: 0.34 nM
- Grooming MED i.p. [2]: 0.1 mg/kg
- Head-Twitch Test MED i.p. [3]: 0.39 mg/kg

SMILES: CCCOc1cc([C@]2(C)CNC(=O)O2)ccc1OC [(R) - (-) - 2, (R)-(-)-5-(4-Methoxy-3-propoxyphenyl)-5-methyl-2-oxazolidinone]
- IC50 (TNF-α release): 250 nM
- Ki [1]: 0.24 nM

SMILES: COc1ccc([C@@]2(C)CNC(=O)O2)cc1OC1CCCC1 [(S) - (+) - 1, (S)-(+)-5-(3-Cyclopentyloxy-4-methoxyphenyl)-5-methyl-2-oxazolidinone]
- Ki [1]: 3 nM
- Grooming MED i.p. [2]: 6.25 mg/kg
- Head-Twitch Test MED i.p. [3]: 6.25 mg/kg

SMILES: CCCOc1cc([C@@]2(C)CNC(=O)O2)ccc1OC [(S) - (+) - 2, (S)-(+)-5-(4-Methoxy-3-propoxyphenyl)-5-methyl-2-oxazolidinone]
- IC50 (TNF-α release): 2500 nM
- Ki [1]: 16 nM

SMILES: CCOc1cc([C@]2(C)CNC(=O)O2)ccc1OC [Ethyl- (R)-(-)-Isomer, (R)-(-)-5-(3-Ethoxy-4-methoxyphenyl)-5-methyl-2-oxazolidinone]
- Ki [1]: 0.33 nM

SMILES: CCOc1cc([C@@]2(C)CNC(=O)O2)ccc1OC [Ethyl- (S)-(+)-Isomer, (S)-(+)-5-(3-Ethoxy-4-methoxyphenyl)-5-methyl-2-oxazolidinone]
- Ki [1]: 20 nM
